Data: BindingDB's records for doi:10.1021/jm1001698 (Institute of Health Sciences, 2010)

Biological target: Bcl-xL (Homo sapiens)
Assay: Displacement of FITC-labeled Bak-BH3 peptide from Bcl-XL after 1 hr by fluorescence polarization assay

SMILES: C=c1c(-c2c(O)c3c(C=N[C@@H]4C(=O)N5[C@@H]4SC(C)(C)[C@@H]5C(=O)O)c(O)c(O)c(=C(C)C)c3c(O)c2=C)c(O)c2c(C=N[C@@H]3C(=O)N4[C@@H]3SC(C)(C)[C@@H]4C(=O)O)c(O)c(O)c(=C(C)C)c2c1O [sodium(2S,2'S,5R,5'R,6R,6'R)-6,6'-((1E,1'E)-(6,6',7,7'-tetrahydroxy-5,5'-diisopropyl-3,3'-dimethyl-1,1',4,4'-tetraoxo-1,1',4,4'-tetrahydro-2,2'-binaphthyl-8,8'-diyl)bis(methan-1-yl-1-ylidene)bis(azan-1-yl-1-ylidene))bis(3,3-dimethyl-7-oxo-4-thia-1-azabicyclo[3.2.0]heptane-2-carboxylate)]
- IC50: 1760 nM
